Results as given in ChEMBL document CHEMBL1132005, “Structure-activity relationship in two series of aminoalkyl substituted coumarin inhibitors of gyrase B” (1999).
Converted amounts (≈) assume the structure as drawn.

Tests used:
[1] = system: Staphylococcus epidermidis; experiment: In vitro antibacterial activity against Staphylococcus epidermidis 012GO39 OxaTei-R; assay type: functional
[2] = molecular target: DNA gyrase (Escherichia coli) (UniProt P0AES6+P0AES4); experiment: In vitro inhibition of supercoiling activity of Escherichia coli DNA gyrase as the ratio of IC50 of Novobiocin and IC50 of compound; assay type: protein-complex assay
Enterococcus faecium = experiment: In vitro antibacterial activity against Enterococcus faecium 02D31P2 VanTeiEry-R; assay type: functional
Staphylococcus aureus [3] = experiment: In vitro antibacterial activity against Staphylococcus aureus 011GO76 OfloOxaEry-R; assay type: functional
Staphylococcus aureus [4] = experiment: In vitro antibacterial activity against Staphylococcus aureus 011HT3; assay type: functional
Streptococcus pyogenes = experiment: In vitro antibacterial activity against Streptococcus pyogenes O2A1UC1
Staphylococcus aureus [5] = experiment: In vitro antibacterial activity against Staphylococcus aureus 011HT1 Nov-R; assay type: functional

| SMILES | MIC [1] | Ratio [2] | MIC (Enterococcus faecium) | MIC (Staphylococcus aureus [3]) | MIC (Staphylococcus aureus [4]) | MIC (Streptococcus pyogenes) | MIC (Staphylococcus aureus [5]) |
| --- | --- | --- | --- | --- | --- | --- | --- |
| CNCCOc1cc(=O)oc2c(C)c(O[C@@H]3OC(C)(C)[C@H](OC)[C@@H](OC(=O)c4ccc(C)[nH]4)[C@H]3O)ccc12 | 1.2 µg/mL (≈ 2.26 µM) | 2.3 | > 40 µg/mL | 2.5 µg/mL (≈ 4.71 µM) | 2.5 µg/mL (≈ 4.71 µM) | 5 µg/mL (≈ 9.42 µM) | 20 µg/mL (≈ 37.7 µM) |
| CO[C@@H]1[C@@H](OC(=O)c2ccc(C)[nH]2)[C@@H](O)[C@H](Oc2ccc3c(OCCn4ccnc4)cc(=O)oc3c2C)OC1(C)C | 0.3 µg/mL (≈ 0.529 µM) | 0.22 | 10 µg/mL (≈ 17.6 µM) | 1.2 µg/mL (≈ 2.11 µM) | 0.6 µg/mL (≈ 1.06 µM) | 1.2 µg/mL (≈ 2.11 µM) | > 20 µg/mL |
| CO[C@@H]1[C@@H](OC(=O)c2ccc(C)[nH]2)[C@@H](O)[C@H](Oc2ccc3c(CN4CCNC(c5ccccc5)C4)cc(=O)oc3c2C)OC1(C)C (stereo partly drawn) | 1.2 µg/mL (≈ 1.9 µM) | 0.28 | 10 µg/mL (≈ 15.8 µM) | 5 µg/mL (≈ 7.91 µM) | 1.2 µg/mL (≈ 1.9 µM) | 2.5 µg/mL (≈ 3.96 µM) | 10 µg/mL (≈ 15.8 µM) |
| CO[C@@H]1[C@@H](OC(N)=O)[C@@H](O)[C@H](Oc2ccc3c(O)c(NC(=O)c4ccc(O)c(CC=C(C)C)c4)c(=O)oc3c2C)OC1(C)C [NOVOBIOCIN] | 0.08 µg/mL (≈ 0.131 µM) | – | 0.3 µg/mL (≈ 0.49 µM) | < 0.04 µg/mL | < 0.04 µg/mL | 0.15 µg/mL (≈ 0.245 µM) | 20 µg/mL (≈ 32.6 µM) |
| CO[C@@H]1[C@@H](OC(=O)c2ccc(C)[nH]2)[C@@H](O)[C@H](Oc2ccc3c(CN)cc(=O)oc3c2C)OC1(C)C | 5 µg/mL (≈ 10.3 µM) | 1.8 | > 40 µg/mL | 40 µg/mL (≈ 82.2 µM) | 10 µg/mL (≈ 20.6 µM) | 40 µg/mL (≈ 82.2 µM) | > 40 µg/mL |
| CO[C@@H]1[C@@H](OC(=O)c2ccc(C)[nH]2)[C@@H](O)[C@H](Oc2ccc3c(OCCN4CCC[C@H]4CO)cc(=O)oc3c2C)OC1(C)C | 2.5 µg/mL (≈ 4.16 µM) | 0.66 | 20 µg/mL (≈ 33.3 µM) | – | 0.6 µg/mL (≈ 0.999 µM) | 5 µg/mL (≈ 8.32 µM) | 40 µg/mL (≈ 66.6 µM) |
| CO[C@@H]1[C@@H](OC(=O)c2ccc(C)[nH]2)[C@@H](O)[C@H](Oc2ccc3c(OCCSc4ncc[nH]4)cc(=O)oc3c2C)OC1(C)C | < 0.04 µg/mL | 0.33 | 5 µg/mL (≈ 8.34 µM) | 5 µg/mL (≈ 8.34 µM) | 0.08 µg/mL (≈ 0.133 µM) | 0.6 µg/mL (≈ 1 µM) | 2.5 µg/mL (≈ 4.17 µM) |
| CO[C@@H]1[C@@H](OC(=O)c2ccc(C)[nH]2)[C@@H](O)[C@H](Oc2ccc3c(O)c(NC(=O)c4ccc(O)c(CC=C(C)C)c4)c(=O)oc3c2Cl)OC1(C)C [CHLOROBIOCIN] | < 0.04 µg/mL | – | – | < 0.04 µg/mL | < 0.04 µg/mL | < 0.04 µg/mL | 0.15 µg/mL (≈ 0.215 µM) |
| CO[C@@H]1[C@@H](OC(=O)c2ccc(C)[nH]2)[C@@H](O)[C@H](Oc2ccc3c(OCCN4CCOC(CO)C4)cc(=O)oc3c2C)OC1(C)C (stereo partly drawn) | 0.6 µg/mL (≈ 0.973 µM) | 0.25 | > 40 µg/mL | > 40 µg/mL | 1.2 µg/mL (≈ 1.95 µM) | 10 µg/mL (≈ 16.2 µM) | 40 µg/mL (≈ 64.9 µM) |
| CO[C@@H]1[C@@H](OC(=O)c2ccc(C)[nH]2)[C@@H](O)[C@H](Oc2ccc3c(OCCN4CCOCC4)cc(=O)oc3c2C)OC1(C)C | 0.15 µg/mL (≈ 0.256 µM) | 0.22 | 20 µg/mL (≈ 34.1 µM) | 0.6 µg/mL (≈ 1.02 µM) | 0.3 µg/mL (≈ 0.511 µM) | 2.5 µg/mL (≈ 4.26 µM) | 10 µg/mL (≈ 17 µM) |
| CCN1CCN(Cc2cc(=O)oc3c(C)c(O[C@@H]4OC(C)(C)[C@H](OC)[C@@H](OC(=O)c5ccc(C)[nH]5)[C@H]4O)ccc23)CC1 | 2.5 µg/mL (≈ 4.28 µM) | 1 | > 40 µg/mL | 10 µg/mL (≈ 17.1 µM) | 5 µg/mL (≈ 8.57 µM) | 20 µg/mL (≈ 34.3 µM) | > 40 µg/mL |
| CO[C@@H]1[C@@H](OC(=O)c2ccc(C)[nH]2)[C@@H](O)[C@H](Oc2ccc3c(Cn4ccnc4)cc(=O)oc3c2C)OC1(C)C | 1.2 µg/mL (≈ 2.23 µM) | 1 | > 40 µg/mL | 5 µg/mL (≈ 9.3 µM) | 1.2 µg/mL (≈ 2.23 µM) | 5 µg/mL (≈ 9.3 µM) | > 40 µg/mL |
| CO[C@@H]1[C@@H](OC(=O)c2ccc(C)[nH]2)[C@@H](O)[C@H](Oc2ccc3c(CN4CCNCC4)cc(=O)oc3c2C)OC1(C)C | 5 µg/mL (≈ 9 µM) | 2.3 | > 40 µg/mL | 20 µg/mL (≈ 36 µM) | 10 µg/mL (≈ 18 µM) | 20 µg/mL (≈ 36 µM) | > 40 µg/mL |
| CO[C@@H]1[C@@H](OC(=O)c2ccc(C)[nH]2)[C@@H](O)[C@H](Oc2ccc3c(OCCN(C)C)c(Cl)c(=O)oc3c2C)OC1(C)C | 5 µg/mL (≈ 8.63 µM) | 0.33 | > 40 µg/mL | 20 µg/mL (≈ 34.5 µM) | 10 µg/mL (≈ 17.3 µM) | 40 µg/mL (≈ 69.1 µM) | > 40 µg/mL |
| CO[C@@H]1[C@@H](OC(=O)c2ccc(C)[nH]2)[C@@H](O)[C@H](Oc2ccc3c(OCCN4CCN(C)CC4)c(Cl)c(=O)oc3c2C)OC1(C)C | 5 µg/mL (≈ 7.88 µM) | 0.33 | > 40 µg/mL | 10 µg/mL (≈ 15.8 µM) | 5 µg/mL (≈ 7.88 µM) | 10 µg/mL (≈ 15.8 µM) | > 40 µg/mL |
| CO[C@@H]1[C@@H](OC(=O)c2ccc(C)[nH]2)[C@@H](O)[C@H](Oc2ccc3c(OCCn4cnc(-c5cccnc5)c4)cc(=O)oc3c2C)OC1(C)C | 0.08 µg/mL (≈ 0.124 µM) | 0.63 | > 40 µg/mL | > 40 µg/mL | 0.6 µg/mL (≈ 0.931 µM) | 1.2 µg/mL (≈ 1.86 µM) | > 40 µg/mL |
